Legend:
Rattus norvegicus [1] = test: Antiinflammatory activity in Sprague-Dawley rat assessed as inhibition of carrageenan-induced edema at 15 mg/kg, po pretreated for 1 hr followed by carrageenan challenge and measured after 4 hrs by mercury plethysmometer relative to control; format: functional
Mus musculus = test: Analgesic activity in Swiss albino mouse assessed as protection against acetic acid-induced writhing at 15 mg/kg, po pretreated for 30 mins followed by acetic acid challenge and measured after 20 mins relative to control; format: functional
[2] = Ulcerogenic activity in Sprague-Dawley rat assessed as ulcer index at 20 mg/kg, ip pretreated followed by pylorus ligation and measured at 4 hrs post ligation; format: toxicity, organism-based; details: in vivo
Rattus norvegicus [3] = test: Antiinflammatory activity in gamma irradiated rat assessed as reduction in serum TNFalpha level at 150 mg/kg, ip administered once daily for 7 consecutive days by ELISA (reference value: 105.07 +/- 3.925 pg/ml); format: functional
Rattus norvegicus [4] = test: Antiinflammatory activity in gamma irradiated rat assessed as reduction in serum IL-6 level at 150 mg/kg, ip administered once daily for 7 consecutive days by ELISA (reference value: 103.87 +/- 3.273 pg/ml); format: functional
Rattus norvegicus [5] = test: Antiinflammatory activity in gamma irradiated rat assessed as reduction in COX-2 level in liver tissue homogenates at 150 mg/kg, ip administered once daily for 7 consecutive days by ELISA (reference value: 89.50 +/- 2.617 ng/ml); format: functional
Rattus norvegicus [6] = test: Antiinflammatory activity in gamma irradiated rat assessed as reduction in NFkappaB level in liver tissue homogenates at 150 mg/kg, ip administered once daily for 7 consecutive days by ELISA (reference value: 258.33 +/- 4.216 pg/ml); format: functional
Human alphaherpesvirus 1 [7] = test: Antiviral activity against Herpes simplex virus 1 at 20 ug/10^5; format: functional
Human alphaherpesvirus 1 [8] = test: Antiviral activity against Herpes simplex virus 1 at 50 ug/10^5; format: functional
Adenosine receptor A1 = molecular target: T1, Adenosine receptor A1 (Homo sapiens, UniProt P30542); test: Displacement of [3H]-CCPA binding from human A1 receptor expressed in CHO cells by radioligand competitive binding assay; format: cell-based
T1 sequence (P30542 whole entry): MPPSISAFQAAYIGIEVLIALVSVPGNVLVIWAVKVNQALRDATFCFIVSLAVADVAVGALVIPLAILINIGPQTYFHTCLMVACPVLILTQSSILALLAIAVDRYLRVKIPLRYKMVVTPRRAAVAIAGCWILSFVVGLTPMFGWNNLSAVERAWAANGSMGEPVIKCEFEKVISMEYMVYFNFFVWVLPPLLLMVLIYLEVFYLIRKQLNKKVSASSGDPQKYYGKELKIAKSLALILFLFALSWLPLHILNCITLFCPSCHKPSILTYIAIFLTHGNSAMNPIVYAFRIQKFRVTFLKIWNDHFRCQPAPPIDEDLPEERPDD

Adenosine receptor A2a = Adenosine receptor A2a (Homo sapiens, UniProt P29274); test: Displacement of [3H]-NECA from human A2A receptor expressed in CHO cells by radioligand competitive binding assay; format: cell-based
Chain of Adenosine receptor A2a (P29274 whole entry): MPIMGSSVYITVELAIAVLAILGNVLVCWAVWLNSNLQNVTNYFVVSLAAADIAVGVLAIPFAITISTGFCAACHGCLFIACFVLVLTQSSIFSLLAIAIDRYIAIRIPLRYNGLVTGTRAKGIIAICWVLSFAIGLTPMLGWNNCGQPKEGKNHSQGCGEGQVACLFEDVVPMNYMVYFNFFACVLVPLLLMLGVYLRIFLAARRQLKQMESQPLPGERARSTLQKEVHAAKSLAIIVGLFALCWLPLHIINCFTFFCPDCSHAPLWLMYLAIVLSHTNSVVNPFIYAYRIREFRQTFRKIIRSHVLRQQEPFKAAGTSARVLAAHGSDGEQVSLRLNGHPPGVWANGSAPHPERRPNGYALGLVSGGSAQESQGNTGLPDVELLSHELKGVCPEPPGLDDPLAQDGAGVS

Adenosine receptor A3 = molecular target: T2, Adenosine receptor A3 (Homo sapiens, UniProt P0DMS8); test: Displacement of [3H]-HEMADO from human A3 receptor expressed in CHO cells by radioligand competitive binding assay; format: cell-based
T2 sequence (P0DMS8 whole entry): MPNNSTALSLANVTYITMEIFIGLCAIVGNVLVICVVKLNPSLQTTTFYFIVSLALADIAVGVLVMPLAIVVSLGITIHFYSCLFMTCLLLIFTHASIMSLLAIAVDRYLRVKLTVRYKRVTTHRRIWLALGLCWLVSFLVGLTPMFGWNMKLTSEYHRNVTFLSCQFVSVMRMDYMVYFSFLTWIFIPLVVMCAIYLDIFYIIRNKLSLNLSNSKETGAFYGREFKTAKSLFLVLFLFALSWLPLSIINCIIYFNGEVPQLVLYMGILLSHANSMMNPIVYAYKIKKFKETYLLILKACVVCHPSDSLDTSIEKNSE

Homo sapiens [9] = species: Homo sapiens; test: Selectivity ratio of Ki for human A1 receptor expressed in CHO cells to Ki for human A2A receptor expressed in CHO cells; format: cell-based
Homo sapiens [10] = species: Homo sapiens; test: Selectivity ratio of Ki for human A1 receptor expressed in CHO cells to Ki for human A3 receptor expressed in CHO cells; format: cell-based
Homo sapiens [11] = species: Homo sapiens; test: Selectivity ratio of Ki for human A2A receptor expressed in CHO cells to Ki for human A3 receptor expressed in CHO cells; format: cell-based
Hepatovirus A = test: Antiviral activity against Hepatitis A virus infected in HepG2 cells assessed as virus inhibition at 40 ug/L incubated overnight with virus followed by inoculation and measured after 1 hr by crystal violet staining based plaque reduction assay; format: functional
HCT-116 [12] = test: Antiproliferative activity against human HCT116 after 48 hrs by MTT assay; format: functional; details: HCT-116, 48 h
HCT-15 = test: Antiproliferative activity against human HCT15 after 48 hrs by MTT assay; format: functional; details: HCT-15, 48 h
HT-29 = test: Antiproliferative activity against human HT-29 after 48 hrs by MTT assay; format: functional; details: HT-29, 48 h
BT-549 = test: Antiproliferative activity against human BT549 after 48 hrs by MTT assay; format: functional; details: BT-549, 48 h
MDA-MB-453 = test: Antiproliferative activity against human MDA-MB-453 after 48 hrs by MTT assay; format: functional; details: MDA-MB-453, 48 h
MCF7 = test: Antiproliferative activity against human MCF7 after 48 hrs by MTT assay; format: functional; details: MCF7, 48 h
A549 [13] = test: Antiproliferative activity against human A549 after 48 hrs by MTT assay; format: functional; details: A549, 48 h
DU-145 = test: Antiproliferative activity against human DU145 after 48 hrs by MTT assay; format: functional; details: DU-145, 48 h
[14] = Inhibition of Influenza A virus H3N2 Neuraminidase
A549 [15] = test: Antiproliferative activity against human A549 after 18 hrs by MTT assay; format: functional, cell-based; details: A549, 18 h
HCT-116 [16] = test: Antiproliferative activity against human HCT116 after 18 hrs by MTT assay; format: functional, cell-based; details: HCT-116, 18 h

For `CC(=O)c1nn(-c2ccc(Cl)cc2)c2nc3sc(-c4ccccc4)c(C)c3c(=O)n12`, the inhibition in vivo at 15 mg/kg (Rattus norvegicus [1]) was 74.5%, the Activity (Mus musculus) was 35% and the UI [2] was 0.9.
With `CCOC(=O)c1sc2ncnc(N[C@@H](CC(=O)O)C(=O)O)c2c1C` the “Serum TNFalpha level” value (Rattus norvegicus [3]) was 51.35 pg/mL, the “Serum IL-6 level” value (Rattus norvegicus [4]) was 59.85 pg/mL and the “COX-2 level in liver homogenate” value (Rattus norvegicus [5]) was 40.5 ng/mL. For the same compound, the “NFkappaB level in liver tissue” value (Rattus norvegicus [6]) was 88.17 pg/mL.
In the case of `Cc1nc(SCCO)c2c3c(sc2n1)CCc1ccccc1-3`, the Activity (Human alphaherpesvirus 1 [7]) is reported as 40% and the Activity (Human alphaherpesvirus 1 [8]) is reported as 75%.
`Nc1nc(-n2ccnc2)c2c3c(sc2n1)CCCC3` gave a Ki (Adenosine receptor A1) of 10.4 µM, a Ki (Adenosine receptor A2a) of 4.06 µM and a Ki (Adenosine receptor A3) of over 30 µM. For the same compound, the Ratio Ki (Homo sapiens [9]) was 2.6, the Ratio Ki (Homo sapiens [10]) was over 0.35 and the Ratio Ki (Homo sapiens [11]) was over 0.14.
For `CC(=O)Nc1nc2sc3c(c2c(=O)[nH]1)CCC3`, the Ki (Adenosine receptor A1) was over 100 µM, the Ki (Adenosine receptor A2a) was over 30 µM and the Ki (Adenosine receptor A3) was 1.35 µM. It also gave a Ratio Ki (Homo sapiens [9]) of over 3.3, a Ratio Ki (Homo sapiens [10]) of over 74 and a Ratio Ki (Homo sapiens [11]) of over 22.
With `NC12CC3CC(CC(C3)C1)C2` [AMANTADINE] the “inhibition (INH)” value (Hepatovirus A) was 55%.
Compound `O=C(/C=C/c1cccc(C(F)(F)F)c1)Nc1cccc(Nc2ncnc3sccc23)c1` has a GI50 (HCT-116 [12]) of 5.8 µM, a GI50 (HCT-15) of 5.1 µM and a GI50 (HT-29) of over 10 µM. It also gave a GI50 (BT-549) of 3.1 µM, a GI50 (MDA-MB-453) of 0.9 µM and a GI50 (MCF7) of 0.8 µM. It also gave a GI50 (A549 [13]) of 4.6 µM and a GI50 (DU-145) of 5.4 µM.
With `CCOC(=O)c1sc2ncnc(N[C@@H](CCSC)C(=O)O)c2c1C` the “Serum TNFalpha level” value (Rattus norvegicus [3]) was 38.5 pg/mL, the “Serum IL-6 level” value (Rattus norvegicus [4]) was 45.72 pg/mL and the “COX-2 level in liver homogenate” value (Rattus norvegicus [5]) was 28.5 ng/mL. The “NFkappaB level in liver tissue” value (Rattus norvegicus [6]) was 66.17 pg/mL.
`CC(=O)Cc1c(C(C)C)sc2nc(C)[nH]c(=O)c12` gave an inhibition in vivo at 15 mg/kg (Rattus norvegicus [1]) of 74.5%, an Activity (Mus musculus) of 59% and a UI [2] of 1.1.
Work on `O=C1c2ccccc2C(=O)N1Nc1nc(-c2c[nH]c3ccccc23)nc2sc3c(c12)CCCC3` yielded an IC50 [14] of 0.067 µM.
`COCCSc1nc(C)nc2sc3c(c12)-c1ccccc1CC3` showed an Activity (Human alphaherpesvirus 1 [7]) of 5% and an Activity (Human alphaherpesvirus 1 [8]) of 45%.
In the case of `CC(=O)Nc1nc2sc(C)c(C)c2c(=O)[nH]1`, the Ki (Adenosine receptor A1) is reported as over 30 µM, the Ki (Adenosine receptor A2a) is reported as over 30 µM and the Ki (Adenosine receptor A3) is reported as 0.524 µM. It also gave a Ratio Ki (Homo sapiens [9]) of over 1, a Ratio Ki (Homo sapiens [10]) of over 57 and a Ratio Ki (Homo sapiens [11]) of over 57.
Compound `Cc1c(-c2ccccc2)sc2nc3n(-c4ccccc4)nc(-c4ccccc4)n3c(=O)c12` has an inhibition in vivo at 15 mg/kg (Rattus norvegicus [1]) of 74.6%, an Activity (Mus musculus) of 52% and a UI [2] of 1.1.
In the case of `Cc1cc2c(OCc3cc(-c4ccc(Cl)cc4)no3)ncnc2s1`, the IC50 (A549 [15]) is reported as 2.79 µM and the IC50 (HCT-116 [16]) is reported as 6.69 µM.
For `CC(=O)OC[C@H]1O[C@@H](Sc2nc3sc4c(c3c(=O)n2C)CCCCC4)[C@H](OC(C)=O)[C@@H](OC(C)=O)[C@@H]1OC(C)=O`, the “inhibition (INH)” value (Hepatovirus A) was 50%.
Work on `COCCSc1ncnc2sc3c(c12)-c1ccccc1CC3` yielded an Activity (Human alphaherpesvirus 1 [7]) of 15% and an Activity (Human alphaherpesvirus 1 [8]) of 30%.
With `Cc1sc2nc(NC(=O)c3ccccc3)[nH]c(=O)c2c1C` the Ki (Adenosine receptor A1) was over 30 µM, the Ki (Adenosine receptor A2a) was 0.65 µM and the Ki (Adenosine receptor A3) was 0.124 µM. For the same compound, the Ratio Ki (Homo sapiens [9]) was over 46, the Ratio Ki (Homo sapiens [10]) was over 240 and the Ratio Ki (Homo sapiens [11]) was 5.24.
Work on `C/C(=N\Nc1nc(-c2c[nH]c3ccccc23)nc2sc3c(c12)CCCC3)c1ccccc1` yielded an IC50 [14] of 0.237 µM.
